According to patent US6872749B2, “Method for supplying bioavailable methionine to a cow” (Adisseo Ireland Limited, priority 1998, dated 2005):
Where two headings read alike, the source gives them in different places.

Tests used:
[1] = incubation for six hours in rumen juices; cited from earlier work
[2] = dose of methionine equivalent to 50 g per day per cow; cited from earlier work
[3] = in vivo; settings: bovine
Protocol: The kinetics of availability of methionine and HMB in the bloodstream were determined for the isopropyl ester of the hydroxy analogue of methionine and compared with the hydroxy analogue of methionine (a compound not according to the present invention).
The procedure of Example 2 was repeated wherein samples of the isopropyl ester of the hydroxy analogue (69 g) and the hydroxy analogue (Alimet™-57 g) were given to four cows.

[4] = test system: cows; test: Milk production of dairy cows given ester supplement (Examples 4 and 6); format: in vivo, cow; settings: for Butter Content of Milk / Daily amount of milk / Protein content of Milk: supplement providing 12.5 g of bioavailable methionine per animal per day, 16 cows; for Effect of addition to the diet on milk composition: versus control, Table 5
Source text: The isopropyl ester of the hydroxy analogue of methionine was given to 16 cows over a period of 8 weeks. Each cow was given daily corn silage and a supplement to cover 100% of requirement and a 115% PDIE (protein digestible in the intestine) requirement.
The supplements were given to the cows according to the following schedule: […]

[5] = Bioavailability of esters of methionine after spot dose to cows (Example 2); format: in vivo, cow; settings: bovine, in vivo
Protocol: The bioavailability of the esters was evaluated.
The samples were stored in a freezer.
The procedure of (b1) was repeated using 72 g of methionine ethyl ester hydrochloride, prepared as detailed above
• cyclohexyl methioninate: 122 g • methionine methyl ester hydrochloride: 73 g • sec butyl methioninate: 72 g

[6] = bovine, in vivo
Protocol: Spot doses of the following amounts of the esters prepared as detailed above, equating to 50 g of methionine equivalent, were given to 2 cows in the manner described in Example 2(b1) above. • methyl ester of HMB: 64.8 g • ethyl ester of HMB: 74.8 g • isopropyl ester of HMB: 80.5 g • n-butyl ester of HMB: 96 g • cyclohexyl ester of HMB: 97.5 g • see butyl ester of HMB: 79 g The concentration of methionine and HMB was measured over a period of 27 hours.
56 g of methyl methioninate and 72 g of n-propyl methioninate (providing an equivalent 50 g of DL-methionine), prepared as detailed above, were supplied to two cows as a spot dose at 7.45 am just before the morning feed.
The ration given to the cows was distributed as two equal meals at 08.00 hours and 16.00 hours comprised 7 kg of hay and 2 kg concentrate.
Samples of blood were taken by jugular vein puncture 09.00, 10.00, 11.00, 13.00 and 15.00 hours on the day where the ester was given to the animal and at 09.00, 12.00 and 15.00 hours on the day before and two days after supply.
The plasma from each sample was isolated from the blood samples by centrifuging the blood at 3000 revs per minute for 10 minutes. The samples were stored in a freezer. The assay for methionine was carried out according to the standard procedure of Moore and Stein.
The results were plotted using the conventional AUC method wherein the areas under the curves are calculated to obtain the bioavailability values for each ester.

Structure (SMILES): CSCCC(O)C(=O)O (centres unmarked) [HMB, 2-hydroxy-4-(methylthio) butanoic acid]
- amount remaining after incubation in rumen juices [1]: 85%
- Bioavailability [2]: 3%
- Blood plasma HMB concentration ([3]; 0 min): 0.00 mg/100 g of plasma
- Blood plasma HMB concentration ([3]; 10 min): 0.00 mg/100 g of plasma
- Blood plasma HMB concentration ([3]; 20 min): 0.00 mg/100 g of plasma
- Blood plasma HMB concentration ([3]; 30 min): 0.00 mg/100 g of plasma
- Blood plasma HMB concentration ([3]; 40 min): 0.00 mg/100 g of plasma
- Blood plasma HMB concentration ([3]; 50 min): 0.00 mg/100 g of plasma
- Blood plasma HMB concentration ([3]; 60 min): 0.00 mg/100 g of plasma
- Blood plasma HMB concentration ([3]; 75 min): 0.00 mg/100 g of plasma
- Blood plasma HMB concentration ([3]; 90 min): 0.00 mg/100 g of plasma
- concentration at 0 min ([3]; Blood plasma HMB concentration): 0 ng/g
- concentration at 10 min ([3]; Blood plasma HMB concentration): 0 ng/g
- concentration at 20 min ([3]; Blood plasma HMB concentration): 0 ng/g
- concentration at 30 min ([3]; Blood plasma HMB concentration): 0 ng/g
- concentration at 40 min ([3]; Blood plasma HMB concentration): 0 ng/g
- concentration at 50 min ([3]; Blood plasma HMB concentration): 0 ng/g
- concentration at 60 min ([3]; Blood plasma HMB concentration): 0 ng/g
- concentration at 75 min ([3]; Blood plasma HMB concentration): 0 ng/g
- concentration at 90 min ([3]; Blood plasma HMB concentration): 0 ng/g

Structure (SMILES): CSCC[C@H](N)C(=O)OC(C)C [Isopropyl methioninate, isopropyl methioninate]
- Butter Content of Milk [4]: 43.3 g/kg
- Daily amount of milk [4]: 32.7 kg/cow
- Protein content of Milk [4]: 30.6 g/kg
- Effect of addition to the diet on milk composition [4]: higher fat content and higher protein content
- [met] methionine concentration in blood plasma ([5]; 0 h): 0.33 mg/100 g of blood plasma
- [met] methionine concentration in blood plasma ([5]; 1 h): 3.62 mg/100 g of blood plasma
- [met] methionine concentration in blood plasma ([5]; 2 h): 3.21 mg/100 g of blood plasma
- [met] methionine concentration in blood plasma ([5]; 3 h): 2.86 mg/100 g of blood plasma
- [met] methionine concentration in blood plasma ([5]; 5 h): 2.22 mg/100 g of blood plasma
- [met] methionine concentration in blood plasma ([5]; 7 h): 1.93 mg/100 g of blood plasma
- [met] methionine concentration in blood plasma ([5]; 28 h): 0.35 mg/100 g of blood plasma
- Bioavailability % ([5]; po): 44%

Structure (SMILES): COC(=O)C(O)CCSC (centres unmarked) [Methyl ester of HMB, methyl ester of HMB]
- amount remaining after incubation in rumen juices [1]: 1.8%
- Bioavailability [6]: 39%

Structure (SMILES): CSCCC(O)C(=O)OC(C)C (centres unmarked) [Isopropyl ester of HMB, isopropyl ester of the hydroxy analogue of methionine]
- Butter Content of Milk [4]: 44.3 g/kg
- Daily amount of milk [4]: 32.3 kg/cow
- Protein content of Milk [4]: 30.8 g/kg
- Effect of addition to the diet on milk composition [4]: higher fat content and higher protein content
- Bioavailability [6]: 59%
- appearance of the bioavailability peak in the blood following administration [6]: relatively quickly
- bioavailability of methionine [6]: more than 50%
- methionine equivalent provided to the bloodstream by absorption across the rumen wall [6]: at least 50%
- Blood plasma HMB concentration [3]: 0.00 mg/100 g of plasma
- Speed of providing methionine and HMB to the bloodstream [3]: much quicker than HMB itself

Structure (SMILES): CCOC(=O)C(O)CCSC (centres unmarked) [ethyl ester of HMB]
- amount remaining after incubation in rumen juices [1]: 3%
- Bioavailability [6]: 35%

Structure (SMILES): CSCC[C@H](N)C(=O)O [methionine]
- amount remaining after incubation in rumen juices [1]: 34%
